Test results published in patent publication US6489119B1, “Analgesic screening method and composition” (priority 1996, dated 2002).

How the values were obtained:
[1] = target: TTXi Na channels (Rattus norvegicus, UniProt Q62968); assay: Whole-cell electrophysiological assay of TTXi Na currents in capsaicin-sensitive DRG neurons; format: cell-based, Sprague-Dawley rat; conditions: DRG neuron; 400 μM, depolarizing steps from holding potential −80 mV; read-out: block of TTXi Na current
Source text: (§1) . Using a voltage paradigm during which a pair of depolarizing steps to −10 mV are separated by a 4 ms repolarizing step, greater than 90% of TTXs Na currents remain inactivated (FIG. 2B, see below). FIGS. 2C and 2D present voltage families of the TTXi (rapidly recovering Na current) and TTXs (slowly recovering Na current), respectively, generated using this paired-pulse paradigm. TTXs currents (FIG. 2D) were generated by subtracting Na currents obtained following a prepulse to −10 mV from those obtained without a prepulse. The fraction of the total Na current carried by the fast-recovering, TTXi, Na channel varied from cell to cell (generally from 70-90% of Na current is carried by a TTXi conductance in capsaicin-sensitive DRGs). […].
(§2) FIG. 4 presents Na currents obtained before and after exposure of cells to solutions containing 50, 100, 200, 500 and 1000 μM SNX-483 in a capsaicin-sensitive DRG neuron (PAN). […] In the experiments presented in FIG. 4, the capsaicin-sensitive neuron was held at −55 mV and stepped twice to −10 mV at 10 second intervals. Similar results have been obtained in every capsaicin-sensitive PAN tested (n=7). Only about 7% of the TTXi Na current that was blocked by 400 μM SNX-483 recovered within 15 minutes of continuously exchanging the recording chamber with fresh extracellular solution. […]

[2] = tested on: TTXi Na channels; assay: as above; format: cell-based, Sprague-Dawley rat; conditions: membrane potential −55 mV
Source text: as §1, §2

[3] = tested on: L-type Ca channel; assay: Fluorometric Ca flux in INDO1-loaded GH3 cells; format: cell-based; conditions: concentrations exceeding 300 AM (highest concentration tested)
Description: (§3) In parallel experiments, SNX-483 was tested for its ability to block voltage-dependent calcium (Ca) and voltage-dependent potassium (K) channels. N- and L-type Ca channel-mediated Ca fluxes were measured fluorometrically using INDO1—loaded IMR32 and GH3 cells, respectively. At concentrations exceeding […] (the highest concentration tested), SNX-483 had no effect on either type of Ca flux.

[4] = tested on: TTXs Na channels; assay: Whole-cell electrophysiological assay of TTXs Na currents in DRG neurons; format: cell-based, Sprague-Dawley rat
Source text: FIG. 7 illustrates that at a membrane potential of −55 mV, SNX-483 more potently blocks TTXi Na currents than TTXs Na currents. In experiments carried out in support of the present invention, DRGs containing predominantly TTXi Na currents and TTXs currents were superfused sequentially with increasing concentrations of SNX-483. […]
10-20 day old Sprague-Dawley rat pups were euthanized using CO2 or decapitation. Dorsal root ganglia were removed and placed in Dulbecco s Minimum Essential Medium supplemented with 10% (v/v) fetal bovine serum (DMEM). Ganglia were then cut into small pieces and transferred to DMEM containing 2 mg/ml collagenase and incubated for 30 minutes in a 37° C. incubator with 5% CO2 atmosphere. After 15 minutes incubation, the pieces were gently triturated by three passages through a glass capillary pulled to 0.2 mm i.d. The collagenase was then removed by three washes in 10 ml of DMEM. The final resuspension was into DMEM supplemented with 50 ng/ml NGF, 50 I.U./ml penicillin and […] streptomycin. Cells were then transferred onto glass coverslips coated with collagen and placed in a 37° C. incubator as above. […]
TTXs sodium currents can be measured in large DRG neurons or in other cells or cell lines lacking TTXi Na channels. […]

[5] = target: T1, Kv1.2 K channel (Homo sapiens, UniProt P16389); assay: K currents of Shaker subfamily channels expressed in xenopus oocytes; format: cell-based; conditions: concentrations up to 1 μM
T1 construct: expressed in transfected cells; host or cells: Xenopus oocytes
Description: (§4) In addition, SNX-483 was evaluated for the ability to inhibit members of the Shaker subfamily of voltage-dependent K channels expressed in xenopus oocytes. At concentrations up to 1 μM, SNX-483 had no effect on K currents mediated by Kv1.1, Kv1.2, Kv1.3 or Kv1.4 K channels.

[6] = target: T2, Kv1.1 K channel (Homo sapiens, UniProt Q09470); assay: as above; format: cell-based; conditions: concentrations up to 1 μM
T2 construct: expressed in transfected cells; host or cells: Xenopus oocytes
Description: as §4

[7] = target: T3, Kv1.3 K channel (Homo sapiens, UniProt P22001); assay: as above; format: cell-based; conditions: concentrations up to 1 μM
T3 construct: expressed in transfected cells; host or cells: Xenopus oocytes
Description: as §4

[8] = target: T4, Kv1.4 K channel (Homo sapiens, UniProt P22459); assay: as above; format: cell-based; conditions: concentrations up to 1 μM
T4 construct: expressed in transfected cells; host or cells: Xenopus oocytes
Description: as §4

[9] = target: T5, N-type Ca channel (Homo sapiens, UniProt Q00975); assay: Fluorometric Ca flux in INDO1-loaded IMR32 cells; format: cell-based; conditions: concentrations exceeding 300 AM (highest concentration tested)
T5 construct: endogenous in cells; host or cells: IMR32 cells
Description: as §3

T3 sequence (P22001 whole entry): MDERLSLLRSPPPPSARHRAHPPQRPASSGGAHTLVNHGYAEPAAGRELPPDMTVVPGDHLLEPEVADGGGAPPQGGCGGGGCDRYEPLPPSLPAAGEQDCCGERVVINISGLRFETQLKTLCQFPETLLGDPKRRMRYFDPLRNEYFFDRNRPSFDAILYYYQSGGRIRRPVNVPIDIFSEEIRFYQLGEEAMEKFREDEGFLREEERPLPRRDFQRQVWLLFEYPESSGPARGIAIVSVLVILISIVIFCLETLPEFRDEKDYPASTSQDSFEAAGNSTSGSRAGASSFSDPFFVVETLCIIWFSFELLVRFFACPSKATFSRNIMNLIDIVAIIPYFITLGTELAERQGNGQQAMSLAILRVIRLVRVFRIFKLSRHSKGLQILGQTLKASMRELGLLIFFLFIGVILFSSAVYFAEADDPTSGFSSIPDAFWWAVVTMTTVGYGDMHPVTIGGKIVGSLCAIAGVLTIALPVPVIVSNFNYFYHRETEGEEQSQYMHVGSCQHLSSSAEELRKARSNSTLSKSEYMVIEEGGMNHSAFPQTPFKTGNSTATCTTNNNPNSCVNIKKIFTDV
T5 sequence (Q00975 whole entry): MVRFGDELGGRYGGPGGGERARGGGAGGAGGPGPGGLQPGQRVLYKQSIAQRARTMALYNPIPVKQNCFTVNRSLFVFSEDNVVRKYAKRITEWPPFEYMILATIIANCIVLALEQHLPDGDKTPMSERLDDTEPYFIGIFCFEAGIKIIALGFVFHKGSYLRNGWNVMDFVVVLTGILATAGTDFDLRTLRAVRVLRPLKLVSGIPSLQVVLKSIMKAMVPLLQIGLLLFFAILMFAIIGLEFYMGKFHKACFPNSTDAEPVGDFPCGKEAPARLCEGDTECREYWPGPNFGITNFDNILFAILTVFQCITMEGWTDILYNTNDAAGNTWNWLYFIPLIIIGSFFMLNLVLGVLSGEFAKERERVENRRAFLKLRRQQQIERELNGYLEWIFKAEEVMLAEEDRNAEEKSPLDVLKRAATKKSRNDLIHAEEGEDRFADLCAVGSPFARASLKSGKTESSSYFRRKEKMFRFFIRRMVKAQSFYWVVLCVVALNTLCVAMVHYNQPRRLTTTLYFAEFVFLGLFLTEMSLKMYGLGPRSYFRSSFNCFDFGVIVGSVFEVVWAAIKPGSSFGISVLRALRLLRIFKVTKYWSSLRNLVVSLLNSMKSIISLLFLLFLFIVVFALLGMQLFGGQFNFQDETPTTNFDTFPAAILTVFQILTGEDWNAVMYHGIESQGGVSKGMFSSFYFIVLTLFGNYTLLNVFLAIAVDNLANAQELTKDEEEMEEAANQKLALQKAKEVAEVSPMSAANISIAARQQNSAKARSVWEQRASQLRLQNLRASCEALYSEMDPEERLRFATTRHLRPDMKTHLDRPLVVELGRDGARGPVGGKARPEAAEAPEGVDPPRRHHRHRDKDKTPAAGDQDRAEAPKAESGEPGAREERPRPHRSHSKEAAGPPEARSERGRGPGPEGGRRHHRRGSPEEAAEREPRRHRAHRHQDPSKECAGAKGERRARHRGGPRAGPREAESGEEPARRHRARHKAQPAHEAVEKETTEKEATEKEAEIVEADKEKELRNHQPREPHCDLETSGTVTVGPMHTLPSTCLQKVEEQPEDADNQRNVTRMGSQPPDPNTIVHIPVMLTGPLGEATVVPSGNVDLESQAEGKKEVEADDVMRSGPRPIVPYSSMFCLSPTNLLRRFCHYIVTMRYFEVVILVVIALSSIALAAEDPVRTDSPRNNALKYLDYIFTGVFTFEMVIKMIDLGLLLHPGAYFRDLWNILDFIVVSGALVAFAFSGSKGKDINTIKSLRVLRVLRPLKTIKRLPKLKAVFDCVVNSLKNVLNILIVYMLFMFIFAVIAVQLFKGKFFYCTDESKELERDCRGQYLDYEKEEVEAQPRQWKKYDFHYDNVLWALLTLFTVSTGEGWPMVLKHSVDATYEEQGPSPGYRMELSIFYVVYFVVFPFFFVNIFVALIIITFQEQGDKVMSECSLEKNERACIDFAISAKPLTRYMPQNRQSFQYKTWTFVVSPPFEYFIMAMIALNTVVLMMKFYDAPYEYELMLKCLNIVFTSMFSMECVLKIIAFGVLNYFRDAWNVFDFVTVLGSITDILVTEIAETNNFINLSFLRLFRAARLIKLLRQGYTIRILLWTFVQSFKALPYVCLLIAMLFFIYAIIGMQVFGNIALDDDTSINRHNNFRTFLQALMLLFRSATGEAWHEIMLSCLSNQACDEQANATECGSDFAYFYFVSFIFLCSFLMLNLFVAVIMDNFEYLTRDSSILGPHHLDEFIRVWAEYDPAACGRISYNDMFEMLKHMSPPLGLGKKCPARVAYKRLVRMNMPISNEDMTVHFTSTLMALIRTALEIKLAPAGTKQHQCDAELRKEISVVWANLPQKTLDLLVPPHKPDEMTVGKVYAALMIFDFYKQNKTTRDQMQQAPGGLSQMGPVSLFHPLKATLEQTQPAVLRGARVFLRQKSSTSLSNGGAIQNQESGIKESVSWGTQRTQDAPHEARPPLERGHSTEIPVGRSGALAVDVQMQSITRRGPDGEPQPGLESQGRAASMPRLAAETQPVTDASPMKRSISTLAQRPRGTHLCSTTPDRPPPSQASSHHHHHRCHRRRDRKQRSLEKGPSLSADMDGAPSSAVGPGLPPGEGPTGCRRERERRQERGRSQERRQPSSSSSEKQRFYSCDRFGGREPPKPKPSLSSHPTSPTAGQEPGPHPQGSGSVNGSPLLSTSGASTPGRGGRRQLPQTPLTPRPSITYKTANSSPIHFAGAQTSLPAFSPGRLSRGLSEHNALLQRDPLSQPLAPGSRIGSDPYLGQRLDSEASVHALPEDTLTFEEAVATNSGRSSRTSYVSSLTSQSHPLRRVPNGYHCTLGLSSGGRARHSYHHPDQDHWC
T5 sequence (P54289 957-1103, further chain): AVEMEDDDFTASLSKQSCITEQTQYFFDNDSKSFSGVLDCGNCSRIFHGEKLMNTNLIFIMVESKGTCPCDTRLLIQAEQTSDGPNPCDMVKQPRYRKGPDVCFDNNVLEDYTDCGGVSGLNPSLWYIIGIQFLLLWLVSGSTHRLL
T5 sequence (P54284 whole entry, further chain): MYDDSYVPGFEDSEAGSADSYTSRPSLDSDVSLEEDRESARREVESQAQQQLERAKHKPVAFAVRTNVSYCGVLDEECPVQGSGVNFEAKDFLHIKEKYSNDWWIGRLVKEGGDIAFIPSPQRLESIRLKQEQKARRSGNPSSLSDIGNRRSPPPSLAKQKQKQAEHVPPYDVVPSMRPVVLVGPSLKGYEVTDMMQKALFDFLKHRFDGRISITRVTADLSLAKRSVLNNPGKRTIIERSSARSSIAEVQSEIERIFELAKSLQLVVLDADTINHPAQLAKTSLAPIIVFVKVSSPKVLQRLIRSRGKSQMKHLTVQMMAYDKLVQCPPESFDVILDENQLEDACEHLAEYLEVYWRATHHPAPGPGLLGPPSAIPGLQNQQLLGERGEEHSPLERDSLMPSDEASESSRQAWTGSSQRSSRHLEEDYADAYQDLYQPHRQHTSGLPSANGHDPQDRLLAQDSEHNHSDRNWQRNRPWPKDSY
T5 sequence (P54289 25-956, further chain): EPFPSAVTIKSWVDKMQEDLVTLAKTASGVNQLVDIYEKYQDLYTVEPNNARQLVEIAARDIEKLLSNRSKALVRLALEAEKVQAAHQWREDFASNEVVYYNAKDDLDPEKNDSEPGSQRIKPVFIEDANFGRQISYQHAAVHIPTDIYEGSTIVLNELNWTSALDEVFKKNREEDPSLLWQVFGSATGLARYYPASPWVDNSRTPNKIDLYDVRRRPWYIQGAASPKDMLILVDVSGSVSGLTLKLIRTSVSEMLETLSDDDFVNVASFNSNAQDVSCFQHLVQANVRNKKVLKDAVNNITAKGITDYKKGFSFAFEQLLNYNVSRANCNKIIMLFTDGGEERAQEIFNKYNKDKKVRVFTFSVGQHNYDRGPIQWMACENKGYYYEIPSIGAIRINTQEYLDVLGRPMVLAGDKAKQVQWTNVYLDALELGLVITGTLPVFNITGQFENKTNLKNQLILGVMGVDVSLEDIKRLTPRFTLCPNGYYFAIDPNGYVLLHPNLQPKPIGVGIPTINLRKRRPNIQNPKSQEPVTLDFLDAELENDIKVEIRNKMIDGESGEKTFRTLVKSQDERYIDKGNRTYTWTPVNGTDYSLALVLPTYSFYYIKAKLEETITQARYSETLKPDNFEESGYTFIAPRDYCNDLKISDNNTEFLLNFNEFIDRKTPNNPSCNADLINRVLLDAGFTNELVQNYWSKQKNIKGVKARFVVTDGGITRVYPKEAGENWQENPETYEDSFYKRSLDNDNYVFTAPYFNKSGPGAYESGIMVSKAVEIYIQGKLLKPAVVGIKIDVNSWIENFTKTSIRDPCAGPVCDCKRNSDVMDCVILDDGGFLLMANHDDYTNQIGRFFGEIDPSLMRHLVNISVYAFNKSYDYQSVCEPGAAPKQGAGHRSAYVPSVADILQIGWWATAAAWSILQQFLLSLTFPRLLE
T1 sequence (P16389 whole entry): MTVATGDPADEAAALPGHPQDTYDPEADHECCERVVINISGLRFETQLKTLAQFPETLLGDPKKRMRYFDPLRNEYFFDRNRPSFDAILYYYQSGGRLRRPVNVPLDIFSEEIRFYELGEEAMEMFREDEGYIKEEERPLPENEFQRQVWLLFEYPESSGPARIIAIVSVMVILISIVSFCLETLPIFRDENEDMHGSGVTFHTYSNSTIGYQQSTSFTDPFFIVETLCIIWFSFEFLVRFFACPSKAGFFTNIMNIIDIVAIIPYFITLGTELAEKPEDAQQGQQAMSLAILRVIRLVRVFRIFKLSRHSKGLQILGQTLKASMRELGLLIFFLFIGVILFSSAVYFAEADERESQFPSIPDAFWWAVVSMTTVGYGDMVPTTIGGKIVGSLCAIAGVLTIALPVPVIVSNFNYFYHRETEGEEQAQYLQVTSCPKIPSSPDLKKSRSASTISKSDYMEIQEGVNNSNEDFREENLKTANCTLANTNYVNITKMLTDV

CCNCC(=O)Nc1c(C)ccc(O)c1C [SNX-483, 2-(ethylamino)-N-(3-hydroxy-2,6-dimethylphenyl) acetamide]
inhibition at 400 µM [1]: 20% | Potency ratio 1/(IC50, TTXi/IC50, TTXs) [2]: 3.1 | effect on L-type Ca channel-mediated Ca flux [3]: no effect | block of TTXs Na currents ([4]; 400 μM, large capsaicin-insensitive DRG clamped at −55 mV, 16 ms repolarizing step): does not block | IC50 ([4]; membrane potential −55 mV): 222 ± 12 µM | effect on K currents mediated by Kv1.2 [5]: no effect | effect on K currents mediated by Kv1.1 [6]: no effect | effect on K currents mediated by Kv1.3 [7]: no effect | effect on K currents mediated by Kv1.4 [8]: no effect | effect on N-type Ca channel-mediated Ca flux [9]: no effect
